According to US12454529B2, “Piperazine cyclic ureas” (SIRONAX LTD., priority 2020, dated 2025):

The compounds below were run on HT-29 cells (assay: HT-29 cell necrosis/necroptosis inhibition (TNF-α + SMAC mimetic + zVAD-FMK; CellTiter-Glo cell viability)). Conditions: Homo sapiens; HT-29 cells, TNF-α 10 ng/ml + SMAC mimetic 6 μM + zVAD-FMK 10 μM, 20 hours; geometric mean, 10 points in duplicate; read-out: EC50 (Cell activity; Necrosis/Necroptosis Inhibitory Activity, Compounds 1-142).
Assay type: cell-based
Summary of the method: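 HT-29 cells (~5,000/well) were switched to FBS-free McCOY's 5A holding TNF-α (10 ng/ml), SMAC mimetic (6 μM) and zVAD-FMK (10 μM), then dosed with a 10-point 1:3 series for 20 h at 37 °C. CellTiter-Glo luminescence gave viability; geometric mean EC50 from duplicates.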

Row | Structure (SMILES) | EC50 [nM]
1 | Cc1nc(C)n(-c2ncnc(N3CCN(C(=O)N4N=CC[C@H]4c4cc(F)cc(C#N)c4)CC3)n2)n1 [Compound 130, (S)-3-(1-(4-(4-(3,5-dimethyl-1H-1,2,4-triazol-1-yl)-1,3,5-triazin-2-yl)piperazine-1-carbonyl)-4,5-dihydro-1H-pyrazol-5-yl)-5-fluorobenzonitrile] | 0.1 to 100
2 | Cn1ccc(-c2nc(N3CCN(C(=O)N4N=CC[C@H]4c4cc(F)cc(F)c4)CC3)ncc2F)n1 [Compound 27, (S)-(5-(3,5-difluorophenyl)-4,5-dihydro-1H-pyrazol-1-yl)(4-(5-fluoro-4-(1-methyl-1H-pyrazol-3-yl)pyrimidin-2-yl)piperazin-1-yl)methanone] | 0.1 to 100
3 | Cc1cc(-c2nc(N3CCN(C(=O)N4N=CC[C@H]4c4cc(F)cc(C#N)c4)CC3)ncc2F)n(C)n1 [Compound 84, (S)-3-(1-(4-(4-(1,3-dimethyl-1H-pyrazol-5-yl)-5-fluoropyrimidin-2-yl)piperazine-1-carbonyl)-4,5-dihydro-1H-pyrazol-5-yl)-5-fluorobenzonitrile] | 0.1 to 100
4 | Cc1nn(CC(N)=O)cc1-c1nc(N2CCN(C(=O)N3N=CC[C@H]3c3cc(F)cc(C#N)c3)CC2)ncc1F [Compound 82] | 0.1 to 100
5 | N#Cc1cc(F)cc([C@@H]2CC=NN2C(=O)N2CCN(c3ncc(F)c(-n4cnc(Cl)n4)n3)CC2)c1 [Compound 126, (S)-3-(1-(4-(4-(3-chloro-1H-1,2,4-triazol-1-yl)-5-fluoropyrimidinyl)piperazine-1-carbonyl)-4,5-dihydro-1H-pyrazol-5-yl)-5-fluorobenzonitrile] | 0.1 to 100
6 | NC(=O)c1cnn(-c2ccnc(N3CCN(C(=O)N4N=CC[C@H]4c4ccccc4)CC3)n2)c1 [Compound 11, (S)-1-(2-(4-(5-phenyl-4,5-dihydro-1H-pyrazole-1-carbonyl)piperazin-1-yl)pyrimidin-4-yl)-1H-pyrazole-4-carboxamide] | 0.1 to 100
7 | COC(=O)c1c[nH]c(-c2ccnc(N3CCN(C(=O)N4N=CC[C@H]4c4cc(F)cc(F)c4)CC3)n2)c1 [Compound 9, methyl (5)-5-(2-(4-(5-(3,5-difluorophenyl)-4,5-dihydro-1H-pyrazole-1-carbonyl)piperazin-1-yl)pyrimidin-4-yl)-1H-pyrrole-3-carboxylate] | 0.1 to 100
8 | O=C(O)c1c[nH]c(-c2nc(N3CCN(C(=O)N4N=CC[C@H]4c4cc(F)cc(F)c4)CC3)ncc2F)c1 [Compound 21, (S)-5-(2-(4-(5-(3,5-difluorophenyl)-4,5-dihydro-1H-pyrazole-1-carbonyl)piperazin-1-yl)-5-fluoropyrimidin-4-yl)-1H-pyrrole-3-carboxylic acid] | 0.1 to 100
9 | NC(=O)c1c[nH]c(-c2ccnc(N3CCN(C(=O)N4N=CC[C@H]4c4cc(F)cc(F)c4)CC3)n2)c1 [Compound 10, (S)-5-(2-(4-(5-(3,5-difluorophenyl)-4,5-dihydro-1H-pyrazole-1-carbonyl)piperazin-1-yl)pyrimidin-4-yl)-1H-pyrrole-3-carboxamide] | 0.1 to 100
10 | Cc1nc(C)n(-c2cc(N3CCN(C(=O)N4N=CC[C@H]4c4cc(F)cc(F)c4)CC3)ncn2)n1 [Compound 90, (S)-(5-(3,5-difluorophenyl)-4,5-dihydro-1H-pyrazol-1-yl)(4-(6-(3,5-dimethyl-1H-1,2,4-triazol-1-yl)pyrimidin-4-yl)piperazin-1-yl)methanone] | 0.1 to 100

Same assay, conditions: Homo sapiens; HT-29 cells, TNF-α 10 ng/ml + SMAC mimetic 6 μM + zVAD-FMK 10 μM, 20 hours; geometric mean, 10 points in duplicate; read-out: EC50 (Cell activity; Necrosis/Necroptosis Inhibitory Activity, Compounds 143-323)

Row | Structure (SMILES) | EC50 [nM]
11 | Cc1cnn(C)c1-c1ccc(F)c(N2CCN(C(=O)N3N=CCC3c3ncccc3Cl)CC2)n1 (stereo not drawn) [Compound 300, (5-(3-chloropyridin-2-yl)-4,5-dihydro-1H-pyrazol-1-yl)(4-(6-(1,4-dimethyl-1H-pyrazol-5-yl)-3-fluoropyridin-2-yl)piperazin-1-yl)methanone] | 0.1 to 100
12 | Cc1nc(C(F)(F)F)nn1-c1nc(N2CCN(C(=O)N3N=CC[C@H]3c3cc(F)cc(F)c3)CC2)ncc1F [Compound 203, (S)-(5-(3,5-difluorophenyl)-4,5-dihydro-1H-pyrazol-1-yl)(4-(5-fluoro-4-(5-methyl-3-(trifluoromethyl)-1H-1,2,4-triazol-1-yl)pyrimidin-2-yl)piperazin-1-yl)methanone] | 0.1 to 100
13 | Cc1cnn(C)c1-c1ccc(F)c(N2CCN(C(=O)N3N=CCC3c3ccccn3)CC2)n1 (stereo not drawn) [Compound 297, (4-(6-(1,4-dimethyl-1H-pyrazol-5-yl)-3-fluoropyridin-2-yl)piperazin-1-yl)(5-(pyridin-2-yl)-4,5-dihydro-1H-pyrazol-1-yl)methanone] | 0.1 to 100
14 | O=C(N1CCN(c2ncc(F)c(-n3nccc3C(F)(F)F)n2)CC1)N1N=CC[C@H]1c1cccc(F)c1 [Compound 302, (S)-(4-(5-fluoro-4-(5-(trifluoromethyl)-1H-pyrazol-1-yl)pyrimidin-2-yl)piperazin-1-yl)(5-(3-fluorophenyl)-4,5-dihydro-1H-pyrazol-1-yl)methanone] | 0.1 to 100
15 | Cc1nc(C)n(-c2nc(N3CCN(C(=O)N4N=CCC4c4ncc(C)s4)CC3)ncc2F)n1 (stereo not drawn) [Compound 216, (4-(4-(3,5-dimethyl-1H-1,2,4-triazol-1-yl)-5-fluoropyrimidin-2-yl)piperazin-1-yl)(5-(5-methylthiazol-2-yl)-4,5-dihydro-1H-pyrazol-1-yl)methanone] | 0.1 to 100
16 | Cc1cc[nH]c(=O)c1-c1nc(N2CCN(C(=O)N3N=CC[C@H]3c3cc(F)cc(C#N)c3)CC2)ncc1F [Compound 164, (S)-3-fluoro-5-(1-(4-(5-fluoro-4-(4-methyl-2-oxo-1,2-dihydropyridin-3-yl)pyrimidin-2-yl)piperazine-1-carbonyl)-4,5-dihydro-1H-pyrazol-5-yl)benzonitrile] | 0.1 to 100
17 | Cc1csc(C2CC=NN2C(=O)N2CCN(c3nc(-c4c(C)cnn4C)ccc3F)CC2)n1 (stereo not drawn) [Compound 299, (4-(6-(1,4-dimethyl-1H-pyrazol-5-yl)-3-fluoropyridin-2-yl)piperazinyl)(5-(4-methylthiazol-2-yl)-4,5-dihydro-1H-pyrazol-1-yl)methanone] | 0.1 to 100
18 | Cc1c(-c2nc(N3CCN(C(=O)N4N=CC[C@H]4c4cc(F)cc(F)c4)CC3)ncc2F)c(C(F)(F)F)nn1C [Compound 198, (S)-(5-(3,5-difluorophenyl)-4,5-dihydro-1H-pyrazol-1-yl)(4-(4-(1,5-dimethyl-3-(trifluoromethyl)-1H-pyrazol-4-yl)-5-fluoropyrimidin-2-yl)piperazin-1-yl)methanone] | 0.1 to 100
19 | Cc1nc(CO)nn1-c1nc(N2CCN(C(=O)N3N=CC[C@H]3c3cc(F)cc(F)c3)CC2)ncc1F [Compound 251, (S)-(5-(3,5-difluorophenyl)-4,5-dihydro-1H-pyrazol-1-yl)(4-(5-fluoro-4-(3-(hydroxymethyl)-5-methyl-1H-1,2,4-triazol-1-yl)pyrimidin-2-yl)piperazinyl)methanone] | 0.1 to 100
20 | Cc1nn(-c2nc(N3CCN(C(=O)N4N=CC[C@H]4c4cc(F)cc(C#N)c4)CC3)ncc2F)c(C)c1C(N)=O [Compound 277, (S)-1-(2-(4-(5-(3-cyano-5-fluorophenyl)-4,5-dihydro-1H-pyrazole-1-carbonyl)piperazin-1-yl)-5-fluoropyrimidin-4-yl)-3,5-dimethyl-1H-pyrazole carboxamide] | 0.1 to 100
21 | Cc1nn(-c2cc(N3CCN(C(=O)N4N=CC[C@H]4c4cc(F)cc(F)c4)CC3)ncn2)c(C)c1C#N [Compound 280, (S)-1-(6-(4-(5-(3,5-difluorophenyl)-4,5-dihydro-1H-pyrazole-1-carbonyl)piperazin-1-yl)pyrimidin-4-yl)-3,5-dimethyl-1H-pyrazole-4-carbonitrile] | 0.1 to 100
22 | Cc1nc(C)n(-c2nc(N3CCN(C(=O)N4N=CCC4c4cnc(C)s4)CC3)ncc2Cl)n1 (stereo not drawn) [Compound 223, (4-(5-chloro-4-(3,5-dimethyl-1H-1,2,4-triazol-1-yl)pyrimidin-2-yl)piperazin-1-yl)(5-(2-methylthiazol-5-yl)-4,5-dihydro-1H-pyrazol-1-yl)methanone] | 0.1 to 100
23 | Cc1nc(C)n(-c2ccnc(N3CCN(C(=O)N4N=CC[C@H]4c4cc(F)cc(C#N)c4)CC3)n2)n1 [Compound 243, (S)-3-(1-(4-(4-(3,5-dimethyl-1H-1,2,4-triazol-1-yl)pyrimidin-2-yl)piperazine-1-carbonyl)-4,5-dihydro-1H-pyrazol-5-yl)-5-fluorobenzonitrile] | 0.1 to 100
24 | Cn1ncnc1-c1nc(N2CCN(C(=O)N3N=CC[C@H]3c3cc(F)cc(C#N)c3)CC2)ncc1Cl [Compound 166, (S)-3-(1-(4-(5-chloro-4-(1-methyl-1H-1,2,4-triazol-5-yl)pyrimidin-2-yl)piperazine-1-carbonyl)-4,5-dihydro-1H-pyrazol-5-yl)-5-fluorobenzonitrile] | 0.1 to 100
25 | Cc1cnn(C)c1-c1ncc(F)c(N2CCN(C(=O)N3N=CCC3c3cncs3)CC2)n1 (stereo not drawn) [Compound 159, (4-(2-(1,4-dimethyl-1H-pyrazol-5-yl)-5-fluoropyrimidin-4-yl)piperazin-1-yl)(5-(thiazol-5-yl)-4,5-dihydro-1H-pyrazol-1-yl)methanone] | 0.1 to 100
26 | Cc1nn(-c2nc(N3CCN(C(=O)N4N=CC[C@H]4c4cc(F)cc(C#N)c4)CC3)ncc2F)c(C)c1NC(=O)C1CC1 [Compound 192, (S)—N-(1-(2-(4-(5-(3-cyano-5-fluorophenyl)-4,5-dihydro-1H-pyrazole-1-carbonyl)piperazin-1-yl)-5-fluoropyrimidin-4-yl)-3,5-dimethyl-1H-pyrazol-4-yl)cyclopropanecarboxamide] | 0.1 to 100
27 | Cc1csc(C2CC=NN2C(=O)N2CCN(c3nc(-c4c(C)cnn4C)ncc3F)CC2)n1 (stereo not drawn) [Compound 161, (4-(2-(1,4-dimethyl-1H-pyrazol-5-yl)-5-fluoropyrimidin-4-yl)piperazinyl)(5-(4-methylthiazol-2-yl)-4,5-dihydro-1H-pyrazol-1-yl)methanone] | 0.1 to 100
